Assay results published in PubChem BioAssay AID2060627 (Molecular Pharmacology Branch, DTP, NCI, 2025).

Test system: 156681-154-R-J1-PDC complex spheroid viability
Assay: Anticancer human tumor 156681-154-R-J1-PDC patient-derived melanoma cell line growth inhibition [CLK]
Conditions: for IC50: curve of first compound; for viability, T/C: stronger effect = lower value
How it was run: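 Patient-derived tumor cells grown as complex spheroids with HUVEC endothelial cells and mesenchymal stem cells, treated with drug combinations. Concentrations descend in half-log steps from near clinical Cmax, or from 10 microM if Cmax unknown.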
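Note: spheroids exposed to the agents for seven days.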
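Throughout, for viability, T/C: 100% = DMSO vehicle control viability.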

Question: What does the source list for `NC(=O)C(=Cn1cnc(-c2cc(C(F)(F)F)cc(C(F)(F)F)c2)n1)c1cncnc1` + CN1CCN(c2cc(C(=O)Nc3cc4cc(-c5cnn(C)c5)ccc4cn3)ccn2)CC1?
Answer: IC50 (second compound 0.0316 µM): 61 nM; IC50 (second compound 0.1 µM): 31.3 nM; IC50 (second compound 0.316 µM): < 9.49 nM; IC50 (second compound 1 µM): < 9.49 nM; IC50 (second compound 3.16 µM): < 9.49 nM; IC50 (second compound 10 µM): < 9.49 nM; viability, T/C (second compound 0.0316 µM, first compound 0.00949 µM): 93.5%; viability, T/C (second compound 0.0316 µM, first compound 0.03 µM): 63.4%; viability, T/C (second compound 0.0316 µM, first compound 0.0949 µM): 45.5%; viability, T/C (second compound 0.0316 µM, first compound 0.3 µM): 13.1%; viability, T/C (second compound 0.0316 µM, first compound 0.949 µM): 4.9%; viability, T/C (second compound 0.0316 µM, first compound 3 µM): 3.07%; viability, T/C (second compound 0.1 µM, first compound 0.00949 µM): 64.3%; viability, T/C (second compound 0.1 µM, first compound 0.03 µM): 50.4%; viability, T/C (second compound 0.1 µM, first compound 0.0949 µM): 26.6%; viability, T/C (second compound 0.1 µM, first compound 0.3 µM): 6.93%; viability, T/C (second compound 0.1 µM, first compound 0.949 µM): 2.72%; viability, T/C (second compound 0.1 µM, first compound 3 µM): 1.03%; viability, T/C (second compound 0.316 µM, first compound 0.00949 µM): 10.8%; viability, T/C (second compound 0.316 µM, first compound 0.03 µM): 8.6%; viability, T/C (second compound 0.316 µM, first compound 0.0949 µM): 1.88%; viability, T/C (second compound 0.316 µM, first compound 0.3 µM): 0.07%; viability, T/C (second compound 0.316 µM, first compound 0.949 µM): 1.67%; viability, T/C (second compound 0.316 µM, first compound 3 µM): 1.86%; viability, T/C (second compound 1 µM, first compound 0.00949 µM): 0.14%; viability, T/C (second compound 1 µM, first compound 0.03 µM): 0.33%; viability, T/C (second compound 1 µM, first compound 0.0949 µM): 0.11%; viability, T/C (second compound 1 µM, first compound 0.3 µM): 0.39%; viability, T/C (second compound 1 µM, first compound 0.949 µM): 2.63%; viability, T/C (second compound 1 µM, first compound 3 µM): 0.65%; viability, T/C (second compound 3.16 µM, first compound 0.00949 µM): 0.07%; viability, T/C (second compound 3.16 µM, first compound 0.03 µM): 2.18%; viability, T/C (second compound 3.16 µM, first compound 0.0949 µM): 2.61%; viability, T/C (second compound 3.16 µM, first compound 0.3 µM): 1.32%; viability, T/C (second compound 3.16 µM, first compound 0.949 µM): 1.52%; viability, T/C (second compound 3.16 µM, first compound 3 µM): 0.84%; viability, T/C (second compound 10 µM, first compound 0.00949 µM): 0.07%; viability, T/C (second compound 10 µM, first compound 0.03 µM): 1.56%; viability, T/C (second compound 10 µM, first compound 0.0949 µM): 1.25%; viability, T/C (second compound 10 µM, first compound 0.3 µM): 2.65%; viability, T/C (second compound 10 µM, first compound 0.949 µM): 2.11%; viability, T/C (second compound 10 µM, first compound 3 µM): 0.95%
